Reference: publication PMC12735718, “Novel Adamantane–Sclareol Hybrids Exploit ROS Vulnerability to Overcome Multidrug-Resistance in Glioblastoma Cells” (Molecules, 2025)

Tests used:
[1] = molecular target: T1, P-gp (U87-TxR cells) (Homo sapiens, UniProt P08183); test: Rhodamine 123 accumulation assay; format: cell-based; conditions: highest concentration, 30 min
T1 construct: Studies were carried out with 2, 5, and TQ in U87-TxR cells with P-gp overexpression; endogenous in cells; host or cells: U87-TxR (paclitaxel-selected from U87)
T1 sequence (P08183 whole entry): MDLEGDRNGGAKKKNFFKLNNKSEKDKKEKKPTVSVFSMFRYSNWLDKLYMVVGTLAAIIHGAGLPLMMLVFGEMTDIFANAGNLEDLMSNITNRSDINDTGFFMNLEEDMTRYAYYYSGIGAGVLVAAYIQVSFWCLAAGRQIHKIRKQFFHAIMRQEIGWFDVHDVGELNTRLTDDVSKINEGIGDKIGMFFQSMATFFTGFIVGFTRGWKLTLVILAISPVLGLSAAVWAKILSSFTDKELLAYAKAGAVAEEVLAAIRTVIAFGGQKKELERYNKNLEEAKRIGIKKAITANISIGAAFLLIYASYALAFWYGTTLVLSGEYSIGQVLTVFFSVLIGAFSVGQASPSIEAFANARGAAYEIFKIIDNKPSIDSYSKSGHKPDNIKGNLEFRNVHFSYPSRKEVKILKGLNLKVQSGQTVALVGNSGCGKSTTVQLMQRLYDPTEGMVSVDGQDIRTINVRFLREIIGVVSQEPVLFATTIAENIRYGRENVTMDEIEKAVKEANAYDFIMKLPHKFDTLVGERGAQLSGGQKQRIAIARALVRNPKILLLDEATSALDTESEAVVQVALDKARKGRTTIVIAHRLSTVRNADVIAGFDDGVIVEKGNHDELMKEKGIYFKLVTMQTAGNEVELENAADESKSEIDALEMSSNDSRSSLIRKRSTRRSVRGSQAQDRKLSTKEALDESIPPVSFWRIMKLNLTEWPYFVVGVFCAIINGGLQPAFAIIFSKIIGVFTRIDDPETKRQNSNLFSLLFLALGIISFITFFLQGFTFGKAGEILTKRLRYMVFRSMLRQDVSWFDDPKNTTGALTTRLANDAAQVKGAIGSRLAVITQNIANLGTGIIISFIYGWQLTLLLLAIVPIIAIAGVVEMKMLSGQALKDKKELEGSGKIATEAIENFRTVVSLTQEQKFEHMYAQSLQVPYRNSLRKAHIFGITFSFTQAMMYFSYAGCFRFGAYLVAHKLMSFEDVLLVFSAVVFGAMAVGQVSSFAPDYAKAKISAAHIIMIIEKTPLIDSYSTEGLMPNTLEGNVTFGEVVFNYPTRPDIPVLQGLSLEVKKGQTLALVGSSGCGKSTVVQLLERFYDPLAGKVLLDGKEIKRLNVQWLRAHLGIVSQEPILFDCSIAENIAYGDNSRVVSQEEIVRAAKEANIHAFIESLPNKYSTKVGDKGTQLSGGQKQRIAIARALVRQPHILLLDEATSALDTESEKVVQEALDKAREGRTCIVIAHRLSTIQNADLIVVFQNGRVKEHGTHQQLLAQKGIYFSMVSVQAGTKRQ
Procedure: Studies were carried out with 2, 5, and TQ in U87-TxR cells with P-gp overexpression. Sensitive U87 cells were used as a positive control for Rho 123 accumulation. U87-TxR cells were seeded in 6-well plates at a density of 100,000 cells/well and incubated overnight. Then, the cells were treated with 1 μM and 2 μM of compounds 2 and 5 for 24 h, 48 h, and 72 h. Thereafter, cells were incubated with 2 μM Rho 123 for an additional 30 min at 37 °C in 5% CO2. In another experimental setting, 2 μM Rho123 was simultaneously applied with increasing concentrations of 2 or 5 (1 μM, 2 μM, and 4 μM) for 30 min. At the end of the accumulation period, the samples were washed twice, resuspended in 1 mL of cold PBS, and analyzed using a CytoFLEX flow cytometer (Beckman Coulter, Indianapolis, IN, USA). The fluorescence was read in a green fluorescence channel (525 nm). At least 10, 000 events were assayed for each sample. Data were analyzed using CytExpert 2.4.0.28 software (Beckman Coulter, Indianapolis, IN, USA).

[2] = tested on: antioxidant-related gene mRNA in U87-TxR cells; test: RT-qPCR of oxidative-stress-related genes, U87-TxR; format: cell-based, human; conditions: 4 µM, 24 h; for increase in GPX1 mRNA expression: relative to untreated control
Procedure: (§1) Prior to RNA isolation, U87 and U87-TxR cell were treated with 4 μM 2 and 5 for 24 h. TRIzol® Reagent was used to isolate total RNA according to manufacturer’s instructions. RNA concentration was determined with NanoPhotometer N60 (Implen GmbH, Munchen, Germany). Quality was determined using electrophoresis on a 1.3% agarose gel. Reverse transcription reaction was carried out using High-Capacity cDNA Reverse Transcription Kit with RNase Inhibitor.
(§2) Quantitative RT-PCR (RT-qPCR) was performed to evaluate mRNA expression levels of CAT, GSR, SOD2, GPX1, GPX4, GST, TRX1, and TRXR1, with ACTB used as the reference gene. Reactions were carried out using Maxima SYBR Green/ROX qPCR Master Mix (Thermo Fisher Scientific, Waltham, MA, USA) in the QuantStudio™ 3 Real-Time PCR System (Applied Biosystems by Thermo Fisher Scientific). Thermocycling conditions consisted of an initial incubation at 50 °C for 5 min, followed by denaturation at 95 °C for 10 min and then 40 cycles of amplification with denaturation at 95 °C for 15 s and annealing/extension at 60 °C for 60 s. Relative gene expression levels were calculated using the ΔΔCt method, normalizing target gene expression to ACTB. All reactions were performed in technical triplicates.

[3] = tested on: intracellular superoxide anion in U87 and U87-TxR cells; test: Superoxide anion detection by DHE; format: cell-based, human; conditions: 4 µM, 24 h and 48 h
Procedure: The levels of ROS were measured in U87 and U87-TxR cells by flow cytometry. The production of superoxide anions was detected using DHE fluorescence dye, while production of H2O2 and peroxynitrite anions was detected using DHR fluorescence dye. Cells were seeded in 6-well plates (150,000 cell/well) and incubated overnight. The cells were then treated with compounds 2 or 5 (4 μM) for 24 h and 48 h. CDDP (10 μM) was used as a positive control. After the treatment period, the cells were stained with DHE or DHR for 30 min in the dark. Following incubation, cells were harvested with trypsinization and washed twice in cold phosphate buffer solution (PBS). Fluorescence was measured on a CytoFlex flow cytometer (Beckman Coulter, Indianapolis, IN, USA). Green fluorescence from the oxidized DHR dye was detected at 525 nm, while the red fluorescence from ethidium derived from DHE was detected at 585 nm. At least 10,000 events were assayed for each sample. The results were analyzed by CytExpert 2.4.0.28 software (Beckman Coulter, Indianapolis, IN, USA).

[4] = tested on: antioxidant-related gene mRNA in U87 cells; test: RT-qPCR of oxidative-stress-related genes, U87; format: cell-based, human; conditions: U87, 4 µM, 24 h; for increase in GPX1 mRNA expression: relative to untreated control
Procedure: as §1, §2

[5] = tested on: U87-TxR cells; test: Combination with PTX, MTT assay; format: cell-based, human; conditions: for combination index (CI) with PTX: CalcuSyn, 0.5-2 µM compound with 0.1-0.5 µM PTX, 72 h, CI < 1 synergistic
Procedure: Cell viability was measured using the colorimetric MTT assay based on the reduction of MTT into formazan dye. Cell lines were seeded into 96-well cell culture plates (4000 cells/well) in appropriate medium. After overnight incubation, cells were treated with increasing concentrations of 1, 2, 3, 4, 5, and 6 (0.5, 1, 2, 4, and 8 µM). After 72 h treatment, MTT solution (4 mg/mL) was added and plates were incubated at 37 °C with 5% CO2 for 3 h. After incubation, formazan crystals were dissolved using 100 µL DMSO, resulting in a purple color. The absorbance was measured at 570 nm with a reference wavelength of 690 nm using an automated microplate reader (MultiskanSky, Thermo Scientific, USA). The IC50 values were determined by non-linear regression analysis in GraphPad Prism 8.0.2. software (GraphPad Software, Boston, MA, USA).
The combined effects of 2 and 5 with PTX were studied in U87-TxR cells by MTT assay as previously described. In simultaneous treatments that lasted 72 h, three concentrations of 2 and 5 (0.5, 1, and 2 µM) were combined with three concentrations of PTX (0.1 μM, 0.2 μM, and 0.5 μM). Drug combination effects were evaluated using the Chou–Talalay method, which calculates the combination index (CI) value for the degree of interaction between the drugs. This method allows quantitative assessment of synergism (CI < 1), additivity (CI close to 1), or antagonism (CI > 1) across a range of dose–effect relationships. Calcusyn® version 1.1 software was used for data analysis (Biosoft, Cambridge UK). Three data points were used for each single drug in each designed experiment. The non-constant ratio combination was chosen to assess the effect of both drugs in combination. The results are presented in a fraction-affected CI graph.

CC1(C)CCC[C@]2(C)[C@@H](CC[C@@](C)(O)/C=C/c3ccc(CNCCCCCCCCNCC45CC6CC(CC(C6)C4)C5)s3)[C@](C)(O)CC[C@@H]12 [Compound 2] was tested, and the “Rho 123 accumulation vs TQ (50 nM)” value [1] was “comparable to TQ”, the “CAT mRNA expression levels” value [2] was “remained unchanged” and the GSTP gene expression [2] was “significantly increased”. For the same compound, the “mRNA expression of SOD2, GSR, and GPX4” value [2] was “increase”, the “increase in GPX1 mRNA expression” value [2] was 1.9 fold and the “intracellular superoxide anion levels (DHE)” value [3] was “no significant changes”. For the same compound, the “CAT mRNA expression levels” value [4] was “remained unchanged”, the GSTP gene expression [4] was “significantly increased” and the “TRX1 mRNA” value [4] was “significant downregulation”. The “increase in GPX1 mRNA expression” value [4] was 1.8 fold, the “Relative Reversal” value ([5]; 0.5 µM of the compound) was 1.75 and the “Relative Reversal” value ([5]; 1.0 µM of the compound) was 1.68. The “Relative Reversal” value ([5]; 2.0 µM of the compound) was 3.05 and the “combination index (CI) with PTX” value [5] was under 1.

In the case of CC1(C)CCC[C@]2(C)[C@@H](CC[C@@](C)(O)/C=C/c3ccc(CNCCCCCCCCNCC45CC6CC(CC(C6)C4)C5)o3)[C@](C)(O)CC[C@@H]12 [Compound 5], the “Rho 123 accumulation vs TQ (50 nM)” value [1] is reported as “comparable to TQ”, the “CAT mRNA expression levels” value [2] is reported as “remained unchanged” and the GSTP gene expression [2] is reported as “significantly increased”. The “mRNA expression of SOD2, GSR, and GPX4” value [2] was “increase”, the “increase in GPX1 mRNA expression” value [2] was 1.5 fold and the “intracellular superoxide anion levels (DHE)” value [3] was “no significant changes”. For the same compound, the “CAT mRNA expression levels” value [4] was “remained unchanged”, the GSTP gene expression [4] was “significantly increased” and the “increase in GPX1 mRNA expression” value [4] was 2.2 fold. The “Relative Reversal” value ([5]; 0.5 µM of the compound) was 0.86, the “Relative Reversal” value ([5]; 1.0 µM of the compound) was 1.85 and the “Relative Reversal” value ([5]; 2.0 µM of the compound) was 1.76. For the same compound, the “combination index (CI) with PTX” value [5] was under 1.
